Experimental data as given in patent publication US12426598B2, “Method for controlling herbicide-resistant weed” (SUMITOMO CHEMICAL COMPANY, LIMITED, priority 2019, dated 2025).

Key:
[1] = test system: palmer amaranth containing a Gly399Ala mutation in PPO2; test: Foliar spray pot test in greenhouse, herbicidal effect; assay type: in vivo, Amaranthus palmeri; conditions: 200 L/ha, rating 0 to 100
[2] = test system: waterhemp containing a Gly210 deficiency in PPO2; test: as above; assay type: in vivo, Amaranthus tuberculatus; conditions: 200 L/ha, rating 0 to 100
[3] = test system: PPO inhibitor-resistant weeds; test: Pot tests with crops in greenhouse (Examples 73 to 2304)
Experimental: On the same day, compound X is applied to the surface of soil so that the application rate of the compound X is 10, 20, 40, or 80 g/ha and the spray liquid amount is 200 L/ha. The plastic pot is then placed in a greenhouse, and at 7 days after the application, soybeans are seeded, and further at 14 days after seeding the soybeans, the effect on the weeds and crop injuries on the soybeans are investigated.
On the same day, compound X is applied to the surface of soil so that the application rate of the compound X is 10, 20, 40, or 80 g/ha and the spray liquid amount is 200 L/ha. The soybeans are then cultivated in a greenhouse, and at 21 days after seeding, the effect on the weeds and crop injuries on the soybeans are investigated.
The soybeans are then cultivated in a greenhouse, and at 21 days after seeding, compound X is applied to the stem and leaf so that the application rate of the compound X is 10, 20, 40, or 80 g/ha and the spray liquid amount is 200 L/ha. Further, the soybeans are cultivated in the greenhouse, and at 14 days after the application of compound X, the effect on the weeds and crop injuries on the soybeans are investigated.

[4] = Example 2305: plant height 10 cm, sprayed 5 g/ha, 14 days after
[5] = Example 2306: plant height 30 cm, sprayed 20 g/ha, 7 days after
[6] = Examples 289 to 432: as Examples 1 to 144, XtendiMax added at 1 pint/acre (560 g/ha)
[7] = Examples 433 to 576: as Examples 1 to 144, RoundupPowerMax 32 fluid ounce/acre and XtendiMax 1 pint/acre added

SMILES: CCOC(=O)COc1ccccc1Oc1nc(-n2c(=O)cc(C(F)(F)F)n(C)c2=O)c(F)cc1Cl [compound X]
- Herbicidal effect [1, 4]: 100
- Herbicidal effect [1, 5]: 97
- Herbicidal effect [2, 4]: 60
- Herbicidal effect [2, 5]: 45
- effect on the weeds [3, 6]: effective control effect
- effect on the weeds [3, 7]: effective control effect

SMILES: CCOC(=O)COc1ncccc1Oc1nc(-n2c(=O)cc(C(F)(F)F)n(C)c2=O)c(F)cc1Cl [compound Y]
- effect on the weeds ([3]; Examples 73 to 144: as Examples 1 to 72, compound Y instead of compound X): effective control effect
- effect on the weeds [3, 6]: effective control effect
- effect on the weeds [3, 7]: effective control effect
